# BindingDB's records for doi:10.7270/Q2NP22V6 (NMMLSC, 2007)
# Biological target: T1, N-formyl peptide receptor 2 (Homo sapiens, UniProt P25090)
# T1 sequence (P25090 whole entry): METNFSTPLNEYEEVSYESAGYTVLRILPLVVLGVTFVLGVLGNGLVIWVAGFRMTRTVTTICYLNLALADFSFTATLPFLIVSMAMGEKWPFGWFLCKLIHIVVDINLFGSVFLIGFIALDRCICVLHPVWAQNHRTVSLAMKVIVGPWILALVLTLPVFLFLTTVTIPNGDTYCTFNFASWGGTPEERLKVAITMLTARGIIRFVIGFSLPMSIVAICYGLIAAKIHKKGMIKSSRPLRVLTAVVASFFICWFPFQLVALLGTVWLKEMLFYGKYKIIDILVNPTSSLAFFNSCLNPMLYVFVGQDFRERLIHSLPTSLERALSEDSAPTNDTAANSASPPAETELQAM
# Experiment: human FPR2 ligand displacement potency – cell-based, flow cytometry, Ki from IC50, dose response (AID 766)
# Conditions: not given
row,IC50 [µM],Compound
1,> 50.5,"CCOC(=O)N1CCN(c2nc(-c3ccc(OC)c(OC)c3)cc(C(F)(F)F)n2)CC1 [4-[4-(3,4-dimethoxyphenyl)-6-(trifluoromethyl)-2-pyrimidinyl]-1-piperazinecarboxylic acid ethyl ester]"
2,> 50,"COc1ccc(-c2cc(C(F)(F)F)nc(N3CCN(c4ccccc4)CC3)n2)cc1OC [4-(3,4-dimethoxyphenyl)-2-(4-phenyl-1-piperazinyl)-6-(trifluoromethyl)pyrimidine]"
3,9.9,"COc1ccc(CC(=O)Nc2cc(-c3cn4cccnc4n3)ccc2OC)cc1 [N-(5-imidazo[1,2-a]pyrimidin-2-yl-2-methoxy-phenyl)-2-(4-methoxyphenyl)acetamide]"
4,> 57.5,"O=C(N1CCN(c2nc(-c3ccccc3)c3ccccc3n2)CC1)C(F)(F)F [2,2,2-trifluoro-1-[4-(4-phenyl-2-quinazolinyl)-1-piperazinyl]ethanone]"
5,3.6,"COc1ccc(-c2cn3cccnc3n2)cc1NC(=O)C(C)C [N-(5-imidazo[1,2-a]pyrimidin-2-yl-2-methoxy-phenyl)-2-methyl-propanamide]"
6,> 66.1,COc1ccc(-c2cn3cccnc3n2)cc1NC(=O)C1CCCC1 [MLS000045945]
7,10.7,"CCC(=O)Nc1cc(-c2cn3cccnc3n2)ccc1OC [N-(5-imidazo[1,2-a]pyrimidin-2-yl-2-methoxy-phenyl)propanamide]"
8,6.7,COc1ccc(-c2cn3cccnc3n2)cc1NC(=O)C1CC1 [MLS000045944]
9,> 41.6,"COc1ccc(-c2cc(C(F)(F)F)nc(N3CCN(C(c4ccccc4)c4ccccc4)CC3)n2)cc1OC [2-(4-benzhydrylpiperazin-1-yl)-4-(3,4-dimethoxyphenyl)-6-(trifluoromethyl)pyrimidine]"

# Same assay, conditions: inactive by the depositor's call
row,IC50 [µM],Compound
1,16.5,"COc1ccc(-c2cc(C(F)(F)F)nc(N3CCN(Cc4ccccc4)CC3)n2)cc1OC [2-(4-benzylpiperazin-1-yl)-4-(3,4-dimethoxyphenyl)-6-(trifluoromethyl)pyrimidine]"
